The nature of data set [1]: Effect on morphology of human erythrocytes assessed as transformation of erythrocytes to stomatocytes S1 type at 6.25 ug/mL after 48 hrs by Giemsa staining. The data set is classed as ADME, cell-based. Conditions: erythrocyte.
The nature of data set [2]: Toxicity in human erythrocytes assessed as transformation of erythrocytes to stomatocytes at 0.625 after 48 hrs by Giemsa staining. The following applies: erythrocyte. The data set is classed as cell-based.
The nature of data set [3]: Effect on human erythrocyte morphology assessed as transformation of erythrocytes to stomatocytes S1 type at 25 to 100 ug/mL after 48 hrs by Giemsa staining. In kind it is ADME, cell-based.
The nature of data set [4]: Effect on human erythrocyte morphology assessed as transformation of erythrocytes to stomatocytes after 48 hrs by Giemsa staining. In kind it is ADME, cell-based.
Data set [5] is described as follows: Effect on human erythrocyte morphology assessed as transformation of erythrocytes to stomatocytes S1 type at 12.5 ug/mL after 48 hrs by Giemsa staining. The data set is classed as ADME, cell-based.
Data set [6] in a line: Effect on human erythrocyte morphology assessed as ghost cell formation at 50 to 100 ug/mL after 48 hrs by Giemsa staining. In kind it is ADME, cell-based.
The nature of data set [7]: Toxicity in human erythrocyte assessed as lysis at 25 to 100 ug/mL after 48 hrs by Giemsa staining. In kind it is cell-based.
Data set [8] in a line: Effect on human erythrocyte morphology assessed as transformation of erythrocytes to stomatocytes S2 type at 25 to 100 ug/mL after 48 hrs by Giemsa staining. In kind it is ADME, cell-based.
In another data set the test system is Plasmodium falciparum. In words: Antiplasmodial activity against chloroquine-sensitive Plasmodium falciparum 3D7 after 48 hrs by [3H]phenylalanine uptake.
The nature of data set [9]: Effect on morphology of human erythrocytes assessed as occurrence of normal discocytes at 6.25 ug/mL after 48 hrs by Giemsa staining. In kind it is ADME, cell-based. Conditions: erythrocyte.
The nature of data set [10]: Effect on human erythrocyte morphology assessed as transformation of erythrocytes to spherostomatocytes at 25 to 100 ug/mL after 48 hrs by Giemsa staining. In kind it is ADME, cell-based.
Data set [11] in a line: Effect on morphology of human erythrocytes assessed as transformation of erythrocytes to stomatocytes S2 type at 6.25 ug/mL after 48 hrs by Giemsa staining. In kind it is ADME, cell-based. Conditions: erythrocyte.
The nature of data set [12]: Toxicity in human erythrocytes assessed as lysis at 12.5 ug/mL after 48 hrs by Giemsa staining. The data set is classed as cell-based. Conditions: erythrocyte.

Structures are written as SMILES.

The IC50 is the midpoint of a concentration-inhibition curve. `C=C(CC[C@H](O)[C@@]1(C)CC[C@H](C(C)(C)O)O1)[C@H]1CC[C@H]2[C@@]1(C)CC[C@H]1C(C)(C)C(=O)CC[C@]21C`: the Activity entry in data set [1] was “Toxic”; in [2], “Non-toxic”; in [3], “Toxic”; in [4] it was “Toxic”; in data set [5] it was “Toxic”; in data set [6], “Toxic”. The Activity entry is on record as “Toxic” in data set [7], “Toxic” in data set [8], “Non-toxic” in data set [9] and “Toxic” in data set [10]. Besides, the half-inhibitory concentration (IC50) with Plasmodium falciparum was under 12 µg/mL.
As to `C=C(CC[C@@H](O)[C@]1(C)CC[C@H](C(C)(C)O)O1)[C@H]1CC[C@H]2[C@@]1(C)CC[C@H]1C(C)(C)C(=O)CC[C@]21C`, the Activity entry is listed as “Toxic” in [1]; “Non-toxic” in data set [2]; “Toxic” in [3]; “Toxic” in [4]; “Toxic” in data set [5]; “Toxic” in data set [6]. Besides, the Activity result in data set [7] was “Toxic”; in [8] it was “Toxic”; in data set [9], “Non-toxic”; in [10], “Toxic”. Further, the IC50 in the data set on Plasmodium falciparum is under 12 µg/mL.
As for `CC(C)=CCC[C@@](C)(O)[C@H]1CC[C@]2(C)[C@@H]1C[C@@H](O)[C@@H]1[C@@]3(C)CCC(=O)C(C)(C)[C@@H]3CC[C@]12C`, the Activity result in [1] is “Toxic”; in [2], “Non-toxic”; in data set [3] it was “Toxic”; in data set [4], “Toxic”; in [5] it was “Toxic”; in [6], “Toxic”. Also, the Activity result is on record as “Toxic” in [7]; “Toxic” in data set [8]; “Toxic” in data set [11]; “Non-toxic” in [12]; “Non-toxic” in data set [9]; “Toxic” in data set [10]. In the data set with Plasmodium falciparum, this compound displayed an IC50 of under 12 µg/mL.

Values taken from ChEMBL document CHEMBL1150150, “New dammarane and malabaricane triterpenes from Caloncoba echinata” (J Nat Prod, 2002).
